The target in test [1] is T1, HSP110:STAT3 complex (Homo sapiens, UniProt Q92598).
T1 construct: disrupting HSP110:STAT3 complex within the cell using human colorectal SW480 cancer cells; endogenous in cells; host or cells: SW480 cells carrying control shRNA (shCtrl); sh110 cells as HSP110-depleted control
Kind of test: Immunoprecipitation of HSP110:STAT3 complex in SW480 cells. The class given is cell-based. The following applies: SW480 shCtrl cells, 10 μM, 48 h. Here is the method: FIG. 2A: Immunoprecipitation (IP) analysis of HSP110 protein (first line), STAT3 protein (second line) compared with total Immunoglobuline (Ig) and actin in SW480 cells treated with (from left to the right column) non-relevant antibody as control (called NT a Normal rabbit IgG (sc-2027) from Santa Cruz Biotechnologies), compound 52 (related to formula (III)), compound 33 (related to formula (II)), compound 51 (related to formula (IV)) and comparative compound 61 at a concentration of 10 μM during 48 h on shCtrl cells transfected with shRNA for shRNA control (referenced ShCtrl IP:STAT3 for the five first columns) or HSP110-silencing (sh110) (referenced sh110-IP:STAT3 for the two last columns) (from the left to the right columns). Immunoprecipitation analysis of HSP110 (first line), STAT3 (second line) compared with total Ig and actin (second blot in the right) is observed with shCtrl cells transfected with shRNA for shRNA control (shCtrl) or HSP110-silencing (sh110) (left to right columns).
FIG. 2B: Quantification of HSP110:STAT3 disruption in percentage considering the total amount of HSP110 protein normalized by the signal intensity of the Ig band of FIG. 1 panel A. (Ordinate: Percentage of STAT3:HSP110 protein interaction (scale 50)). The histogram measured quantification in percentage for ShCtrl IP: STAT3 treated with Ctrl, compounds 52, 33, 51 and comparative compound 61, and for shCtrl cells transfected with shRNA for shRNA control referenced ShCtrl IP: STAT3) or HSP110-silencing (sh110) (referenced sh110-IP: STAT3) (from the left to the right column)
(§1) Immunoprecipitation test were realized on human colorectal cancer cells (SW480 and HCT116 cell lines), using a control depleted in HSP110 called Sh110 and a not depleted cells in HSP110. STAT3 phosphorylation is then […] by compounds 33 and 52. Depletion of HSP110 in the negative control blocked the phosphorylation of STAT3 without affecting STAT3 overall levels (FIGS. 2 and 3).

In test [2] the test system is phosphorylated STAT3. Kind of test: P-STAT3 level in SW480 cells (immunoblot quantification). The class given is cell-based, human. The following applies: 10 μM, 48 h, normalized by actin. Here is the method: Results for SW480 cells treated during 48 h with non-relevant antibody (called NT), compound 52, compound 33, compound 51 and comparative compound 61 at 10 μM, and sh110 cells correspond to the third fourth, fifth, sixth and last columns from the left to the right.
FIG. 3B: Quantification of P-STAT3 level (in percentage) normalized by actin. […] (Ordinate: Percentage of P-STAT3 level (scale 50)
as §1
(A western blot detects proteins with antibodies after separation by electrophoresis.)

Test [3] deals with T2, human protein HSP110 (Homo sapiens, UniProt Q92598).
T2 construct: DNA coding the NBD-HSP110 (from human-HSP110)
T2 sequence (Q92598 whole entry, looked up): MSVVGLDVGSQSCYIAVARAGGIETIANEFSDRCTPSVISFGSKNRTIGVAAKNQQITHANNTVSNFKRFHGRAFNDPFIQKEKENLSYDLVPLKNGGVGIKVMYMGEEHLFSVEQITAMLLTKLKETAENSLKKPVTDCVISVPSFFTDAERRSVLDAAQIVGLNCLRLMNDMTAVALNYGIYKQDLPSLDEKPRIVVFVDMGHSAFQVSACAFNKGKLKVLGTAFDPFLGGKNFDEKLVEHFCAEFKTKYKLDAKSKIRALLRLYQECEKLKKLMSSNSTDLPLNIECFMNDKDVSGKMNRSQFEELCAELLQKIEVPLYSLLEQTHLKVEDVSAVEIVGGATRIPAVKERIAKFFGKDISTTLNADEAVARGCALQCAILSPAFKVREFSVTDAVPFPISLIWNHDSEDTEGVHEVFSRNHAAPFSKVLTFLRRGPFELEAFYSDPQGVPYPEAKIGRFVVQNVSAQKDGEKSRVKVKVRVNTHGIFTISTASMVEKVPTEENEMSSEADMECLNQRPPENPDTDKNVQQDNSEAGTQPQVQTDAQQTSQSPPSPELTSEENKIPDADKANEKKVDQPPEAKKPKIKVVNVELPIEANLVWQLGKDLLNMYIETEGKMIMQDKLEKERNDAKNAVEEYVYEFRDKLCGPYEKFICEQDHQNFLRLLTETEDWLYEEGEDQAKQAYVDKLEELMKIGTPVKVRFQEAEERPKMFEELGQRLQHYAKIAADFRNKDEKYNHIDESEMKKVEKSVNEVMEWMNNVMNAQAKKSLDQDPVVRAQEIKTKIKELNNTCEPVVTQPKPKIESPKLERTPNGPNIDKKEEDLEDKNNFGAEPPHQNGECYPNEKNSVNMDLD
Kind of test: HSP110 anti-aggregation function (luciferase substrate test). The class given is biochemical. To be noted: human HSP110 1.5 μM with firefly luciferase, 30 min at 42° C.; read-out: IC50 of HSP110 anti-aggregating activity. Here is the method: Anti-aggregation function of HSP110 was evaluated as described by O H et al (The Journal of biological chemistry 274, 15712-15718 (1999)). The human protein HSP110 (obtained as described above) at a concentration of 1.5 μM was incubated with firefly luciferase (from Sigma—from Photinus pyralis) in reaction buffer and heated in water bath for 30 min at 42° C.
Compounds of the present invention were added in reaction buffer to achieve the indicated concentrations and the final DMSO concentration was held constant at 1%. The heated reaction was diluted 10 times into buffer containing 60% of rabbit reticulocytelysate and incubated for 2 hours. The luciferase activity was measured by diluting 5 times the solution in HEPES and adding 5 μL of the solution in luciferase substrate (50 μL of Luciferase Assay System—Promega E1501 diluted in HEPES). The bioluminescence was reading with Envision Perkin Elmer.
The percentage of activity (x) was calculated by using the following equation: x=[(A−B)/(C−B)]×100, where (A) is the luciferase luminescence in presence of compounds of the invention, (B) in absence of HSP110 and (C) in presence of DMSO (Control). The percentage of total folding HSP110-promoted (mean=36%) was calculated considering as 100% the luminescence of luciferase incubated with HSP110 without heat shock. The IC50 were calculated from the dose-response curves, which were fitted by GraphPrism (Equation: Y=100/(1+10^((Log IC50−X)*HillSlope)).

The subject of test [4] is CT26 cells. Kind of test: Flow cytometric analysis of cell death (Annexin V / 7-AAD) in CT26 cells. To be noted: 10 μM, 96 h. It counts as cell-based, mouse. Here is the method:
FIG. 5A: Flow cytometric analysis of cell death in CT26 cells treated with the compound 33 (at the bottom left), compound 52 (at the bottom middle), comparative compound 61 (at the bottom right) at 10 μM during 96 h compared with Control (DMSO) (at the top left), and Cisplatin (at the top middle and top right). Live cells were double negative for 7-AAD (Y axis) and Annexin V (X axis), early apoptotic cells were positive for Annexin V, late apoptotic cells were positive for Annexin V and 7-AAD ([…]) and dead cells were positive for 7-AAD only.
FIG. 5B: Quantification of cell viability (in percentage) from flow cytometry data are represented (Control, cells, compounds 33, 52 and 61 from the left to the right bars). (Abscissa Negativity of 7-AAD; Ordinate Negativity of Annexin V).
We then analyzed cell death in CT26 cells treated with 10 μM during 96 h of compounds 33, 52 and 61 by flow cytometry. Cells were also treated with a well know anti-cancer compound, called cisplatin. Cells were marked for 7-aminoactinomycin D, which exclusively bind on death cells and for Annexin V, a well-known indicators of early stage apoptosis, thanks to its ability to bind to phosphatidylserine.
(In general: In flow cytometry, cells or beads pass a laser one at a time.)

In test [5] the target is T3, HSP110/Myd88 interaction (Homo sapiens, UniProt Q92598).
T3 construct: endogenous in cells
T3 sequence (Q92598 2-858 limits assumed): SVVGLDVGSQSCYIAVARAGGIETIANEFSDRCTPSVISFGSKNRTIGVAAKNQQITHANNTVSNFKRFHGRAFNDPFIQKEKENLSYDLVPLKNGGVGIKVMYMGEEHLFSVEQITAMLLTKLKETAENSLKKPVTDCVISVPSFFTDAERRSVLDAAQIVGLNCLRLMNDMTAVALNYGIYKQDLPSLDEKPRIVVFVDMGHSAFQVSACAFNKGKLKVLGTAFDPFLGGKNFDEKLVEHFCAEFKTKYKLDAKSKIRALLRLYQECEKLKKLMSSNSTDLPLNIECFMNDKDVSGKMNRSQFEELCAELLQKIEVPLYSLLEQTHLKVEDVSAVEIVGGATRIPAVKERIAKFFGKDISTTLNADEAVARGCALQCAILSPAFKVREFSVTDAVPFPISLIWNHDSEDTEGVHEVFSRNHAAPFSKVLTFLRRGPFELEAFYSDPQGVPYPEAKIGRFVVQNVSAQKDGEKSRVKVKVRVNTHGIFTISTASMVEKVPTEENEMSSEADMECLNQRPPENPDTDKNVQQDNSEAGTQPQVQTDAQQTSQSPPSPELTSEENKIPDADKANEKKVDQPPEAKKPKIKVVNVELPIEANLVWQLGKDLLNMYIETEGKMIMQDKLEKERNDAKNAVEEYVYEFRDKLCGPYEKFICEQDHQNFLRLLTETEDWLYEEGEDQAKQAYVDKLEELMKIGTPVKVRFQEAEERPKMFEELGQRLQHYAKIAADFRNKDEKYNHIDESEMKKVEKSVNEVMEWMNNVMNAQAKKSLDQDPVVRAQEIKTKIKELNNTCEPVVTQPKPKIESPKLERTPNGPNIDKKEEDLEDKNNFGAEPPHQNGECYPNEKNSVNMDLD
Kind of test: Immunoprecipitation of HSP110/Myd88 in DLBCL cell line. The class given is cell-based. To be noted: IP Myd88, Western Blot. From the text: FIG. 10A: Immunoprecipitation (IP) analysis of HSP110 (first line), Myd88 (second line), heavy chains (third line) and actin (fourth line) in large B cell lymphoma cell lines (DLBCL).
Left part of FIG. 10A (“Inputs”): treated with (from left to right column of the left part of FIG. 10A) DMSO, compound 52 (5052), compound 33 (5033) and compound 61 (5061) (Negative control);
Middle part of FIG. 10A (“IP Myd88”): treated with (from left to right column of the middle part of FIG. 10A) DMSO, compound 52, compound 33 and compound 61 (as the negative control); Myd88 was immunoprecipitated with an antibody specifically directed against Myd88.
MyD88 was immuno-precipitated from the cell line which has been non-treated or treated with the HSP110 inhibitors.

T1 sequence (Q92598 2-858 limits assumed, one chain of several): as the sequence (Q92598 2-858 limits assumed) above

Turning to `COc1ccc(-c2cnc(-c3cnc(-c4ccc(OC)c(OC)c4)c(C)c3)c(/C=C/c3ccccc3)c2)cc1OC` [compound 51, (E)-5,6′-Bis(3,4-dimethoxyphenyl)-5′-methyl-3-styryl-2,3′-bipyridine], the “percentage of interaction of STAT3:HSP110” value in test [1] is reported as “not decrease”. The P-STAT3 level entry in test [2] is on record as “about 50%”.
As a reminder, the IC50 is the midpoint of a concentration-inhibition curve. Regarding `N#CCc1cccc(-c2cnc(Cl)c(/C=C/c3ccccc3)c2)c1` [compound 61, (E)-2-(3-(6-Chloro-5-styrylpyridin-3-yl)phenyl) acetonitrile, reference compound], the half-inhibitory concentration (IC50) in test [3] stood at 227.5 ± 1.9 µM. Moreover, the “percentage of interaction of STAT3:HSP110” value in test [1] is on record as “not decrease”. Also, the P-STAT3 level in test [2] turned out to be 100%. Further, the “cell death / apoptosis (Annexin V and 7-AAD marking)” value in test [4] is “don't seem to be marked”. Besides, the HSP110/Myd88 interaction entry in test [5] is “does not inhibit”.

Source of the values: US12070452B2, “Compounds targeting HSP110 protein for cancer treatment” (INSERM (Institut National de la Santé et de la Recherche …, priority 2018, dated 2024).
